Experimental data: patent publication US11999806B2, “Broad-spectrum polypeptide against enterovirus and application thereof” (WUHAN INSTITUTE OF VIROLOGY, CHINESE ACADEMY OF SCIENCES, priority 2018, dated 2024)
Values joined by “and” are separate entries in the source; they are usually repeats but may differ in a detail not shown here. Equal values may be shown once. Read-outs that look alike come from different tables or passages of the source. No end group written: not given here.

What was measured:
[1] = Cytotoxicity by CCK-8 in RD cells; assay type: cell-based; conditions: human
RD cells = test: Cytotoxicity by CCK-8 in RD cells; assay type: cell-based; conditions: RD cells; for Cell viability (%): 24 h; for cytotoxicity, result in words: CCK-8, 24 h

Sequence: YGRKKRRQRRRGSGEAVREYCK [BP8]
- viability at 24 h, 3.0625 µM ([1]; RD cells, 3.0625 μM, 24 h, CCK-8 4 h (Example 18), read-out: Cell viability (%)): 102%
- viability at 24 h, 6.125 µM ([1]; RD cells, 6.125 μM, 24 h, CCK-8 4 h (Example 18), read-out: Cell viability (%)): 101%
- viability at 24 h, 12.5 µM ([1]; RD cells, 12.5 μM, 24 h, CCK-8 4 h (Example 18), read-out: Cell viability (%)): 94.9%
- viability at 24 h, 25 µM ([1]; RD cells, 25 μM, 24 h, CCK-8 4 h (Example 18), read-out: Cell viability (%)): 93.4%
- viability at 24 h, 50 µM ([1]; RD cells, 50 μM, 24 h, CCK-8 4 h (Example 18), read-out: Cell viability (%)): 95.2%
- viability at 24 h, 100 µM ([1]; RD cells, 100 μM, 24 h, CCK-8 4 h (Example 18), read-out: Cell viability (%)): 93.1%
- viability at 24 h, 200 µM ([1]; RD cells, 200 μM, 24 h, CCK-8 4 h (Example 18), read-out: Cell viability (%)): 88.9%
- CC50 at 24 h ([1]; Table 1 summary, cell line not given, read-out: CC50): > 200 µM
- Cell viability (%) (RD cells; 3.0625 μM, CCK-8 4 h (Example 18)): 103.1369% and 104.4%
- Cell viability (%) (RD cells; 6.125 μM, CCK-8 4 h (Example 18)): 103.5158%
- Cell viability (%) (RD cells; 12.5 μM, CCK-8 4 h (Example 18)): 99.35% and 104.8421%
- Cell viability (%) (RD cells; 25 μM, CCK-8 4 h (Example 18)): 97.26% and 99.85%
- Cell viability (%) (RD cells; 50 μM, CCK-8 4 h (Example 18)): 94.17% and 97.64%
- Cell viability (%) (RD cells; 100 μM, CCK-8 4 h (Example 18)): 93.6% and 96.25%
- Cell viability (%) (RD cells; 200 μM, CCK-8 4 h (Example 18)): 92.08%
- cytotoxicity, result in words (RD cells): not toxic to cells within 200 μM

Sequence: YGRKKRRQRRRGSGEEVRQYCR [ER]
- viability at 24 h, 0.46875 µM ([1]; RD cells, 0.46875 μM, 24 h, read-out: Cell viability (%)): 99.9%
- viability at 24 h, 2.34375 µM ([1]; RD cells, 2.34375 μM, 24 h, read-out: Cell viability (%)): 98.6%
- viability at 24 h, 4.6875 µM ([1]; RD cells, 4.6875 μM, 24 h, read-out: Cell viability (%)): 99.1%
- viability at 24 h, 9.375 µM ([1]; RD cells, 9.375 μM, 24 h, read-out: Cell viability (%)): 98.5%
- viability at 24 h, 18.75 µM ([1]; RD cells, 18.75 μM, 24 h, read-out: Cell viability (%)): 99%
- viability at 24 h, 37.5 µM ([1]; RD cells, 37.5 μM, 24 h, read-out: Cell viability (%)): 94.8%
- viability at 24 h, 75 µM ([1]; RD cells, 75 μM, 24 h, read-out: Cell viability (%)): 89.7%
- viability at 24 h, 150 µM ([1]; RD cells, 150 μM, 24 h, read-out: Cell viability (%)): 72.9%
- viability at 24 h, 300 µM ([1]; RD cells, 300 μM, 24 h, read-out: Cell viability (%)): 42.2%
- CC50 at 24 h ([1]; RD cells, CCK-8, 24 h, Example 15, read-out: 50% cytotoxic concentration (CC50)): 290 µM
- Cell viability (%) (RD cells; 0.46875 μM): 99.34% and 100%
- Cell viability (%) (RD cells; 2.34375 μM): 98.07% and 102.7%
- Cell viability (%) (RD cells; 4.6875 μM): 100.8% and 103.1%
- Cell viability (%) (RD cells; 9.375 μM): 98.48% and 102.4%
- Cell viability (%) (RD cells; 18.75 μM): 96.59% and 98.47%
- Cell viability (%) (RD cells; 37.5 μM): 95.69% and 92.24%
- Cell viability (%) (RD cells; 75 μM): 89.79% and 90.36%
- Cell viability (%) (RD cells; 150 μM): 74.32% and 76.72%
- Cell viability (%) (RD cells; 300 μM): 43.39% and 48.41%
- cytotoxicity, result in words (RD cells): very low toxicity
